From patent publication US12281122B1, “PI3K inhibitors” (Cogent Biosciences, Inc., priority 2023, dated 2025)

How the values were obtained:
[1] = system: T47D (PI3Kα-H1047R) cell line; assay: HTRF phospho-AKT(S473) cell assay in T47D cells; assay type: cell-based, human; conditions: Homo sapiens; T47D (PI3Kα-H1047R) cells, HTRF phospho-AKT(S473), 2 hours compound incubation
Outline: (§1)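 T47D: RPMI + 10% FBS + 0.2 units/mL insulin, top 5 μM. SKBR3: McCoy's 5A + 10% FBS, top 10 μM, 70 ng/ml PDGF-BB last 15 min. Both: 12-pt 1:3, 2 h, 37° C, max 0.5% DMSO; HTRF pAKT(S473); IC50.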

[2] = target: PI3Kα (Homo sapiens, UniProt P42336); assay: PI3Kα enzyme assay (Transcreener ADP2 TR-FRET Red Assay); assay type: biochemical; conditions: purified recombinant full-length protein; 2 hours pre-incubation with compound; read-out: PI3Kα WT IC50
Outline: (§2)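 IC50 taken at 50 POC from a four-parameter logistic fit of TR-FRET (665/615 nm) ADP signal. Reactions used full-length recombinant enzyme, compound pre-incubation for 2 h, then 60 min with ATP and PI(4,5)P2 diC8 substrate at room temperature, pH 7.5 HEPES buffer with 25 mM MgCl2; compounds tested from 50,000 to 0.85 nM.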

[3] = target: PI3Kα H1047R (Homo sapiens, UniProt P42336, H1047R); assay: PI3Kα H1047R enzyme assay (Transcreener ADP2 TR-FRET Red Assay); assay type: biochemical; conditions: purified recombinant full-length protein; 2 hours pre-incubation with compound
Outline: as §2

[4] = system: SKBR3 (PI3Kα-Wild Type) cell line; assay: HTRF phospho-AKT(S473) cell assay in SKBR3 cells; assay type: cell-based, human; conditions: Homo sapiens, SK-BR-3; SKBR3 (PI3Kα-Wild Type) cells, HTRF phospho-AKT(S473), 2 hours compound incubation, PDGF-BB stimulated
Outline: as §1

PI3Kα, sequence (P42336 whole entry): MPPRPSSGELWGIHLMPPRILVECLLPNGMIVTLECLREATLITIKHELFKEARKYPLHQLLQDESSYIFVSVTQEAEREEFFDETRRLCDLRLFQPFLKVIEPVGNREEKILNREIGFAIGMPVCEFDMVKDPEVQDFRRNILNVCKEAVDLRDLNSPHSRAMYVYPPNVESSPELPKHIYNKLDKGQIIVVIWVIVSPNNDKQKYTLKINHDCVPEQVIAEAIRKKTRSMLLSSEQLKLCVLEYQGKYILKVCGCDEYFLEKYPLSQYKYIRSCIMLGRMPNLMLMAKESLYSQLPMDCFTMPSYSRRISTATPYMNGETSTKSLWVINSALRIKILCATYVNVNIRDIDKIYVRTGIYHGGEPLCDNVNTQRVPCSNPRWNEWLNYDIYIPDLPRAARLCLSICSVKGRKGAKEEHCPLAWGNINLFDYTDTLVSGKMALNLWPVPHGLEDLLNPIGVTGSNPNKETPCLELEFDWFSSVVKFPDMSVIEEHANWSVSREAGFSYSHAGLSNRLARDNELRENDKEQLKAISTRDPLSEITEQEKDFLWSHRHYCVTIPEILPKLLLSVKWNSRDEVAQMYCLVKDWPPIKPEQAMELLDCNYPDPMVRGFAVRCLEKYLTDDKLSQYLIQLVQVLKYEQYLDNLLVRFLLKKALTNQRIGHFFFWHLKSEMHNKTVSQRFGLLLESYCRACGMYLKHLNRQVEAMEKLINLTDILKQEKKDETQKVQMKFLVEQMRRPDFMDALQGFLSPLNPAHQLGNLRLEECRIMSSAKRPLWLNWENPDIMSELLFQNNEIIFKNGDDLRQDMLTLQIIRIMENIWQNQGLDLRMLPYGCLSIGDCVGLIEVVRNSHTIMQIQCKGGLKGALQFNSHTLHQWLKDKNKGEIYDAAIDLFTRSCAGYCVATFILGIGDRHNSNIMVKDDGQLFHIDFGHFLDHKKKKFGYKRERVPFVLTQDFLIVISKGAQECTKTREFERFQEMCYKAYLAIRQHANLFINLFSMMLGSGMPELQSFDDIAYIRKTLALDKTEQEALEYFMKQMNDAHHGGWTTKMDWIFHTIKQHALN
PI3Kα, sequence (P27986 2-724 partner): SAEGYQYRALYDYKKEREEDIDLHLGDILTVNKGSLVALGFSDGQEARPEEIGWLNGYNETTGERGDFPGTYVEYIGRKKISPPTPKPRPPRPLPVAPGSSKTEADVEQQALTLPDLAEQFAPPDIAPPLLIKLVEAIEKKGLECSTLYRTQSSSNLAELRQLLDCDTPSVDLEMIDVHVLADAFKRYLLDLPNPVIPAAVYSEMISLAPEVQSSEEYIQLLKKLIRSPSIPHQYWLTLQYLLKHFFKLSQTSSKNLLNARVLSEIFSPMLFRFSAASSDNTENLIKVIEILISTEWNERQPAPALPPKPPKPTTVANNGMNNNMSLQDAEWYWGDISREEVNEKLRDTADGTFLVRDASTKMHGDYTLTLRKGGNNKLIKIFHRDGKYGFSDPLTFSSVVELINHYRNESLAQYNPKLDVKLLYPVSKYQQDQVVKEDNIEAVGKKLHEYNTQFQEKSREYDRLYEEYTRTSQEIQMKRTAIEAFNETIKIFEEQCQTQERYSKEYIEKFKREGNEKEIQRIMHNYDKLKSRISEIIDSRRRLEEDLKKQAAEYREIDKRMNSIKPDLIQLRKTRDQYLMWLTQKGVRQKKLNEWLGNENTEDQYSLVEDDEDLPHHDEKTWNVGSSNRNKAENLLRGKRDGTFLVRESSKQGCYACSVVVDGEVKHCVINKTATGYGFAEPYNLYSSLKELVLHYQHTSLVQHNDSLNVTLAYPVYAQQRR
PI3Kα H1047R, sequence (P42336 whole entry H1047R): as the sequence (P42336 whole entry) above, with H1047R counted along it
PI3Kα H1047R, sequence (P27986 2-724 partner): as the sequence (P27986 2-724 partner) above

SMILES: Cc1cc([C@@H](C)Nc2ccc(Cl)nc2C(=O)NS(C)(=O)=O)c2nc(OCc3cccnc3)n(C)c(=O)c2c1 [Compound 56, (R)-6-chloro-3-((1-(3,6-dimethyl-4-oxo-2-(pyridin-3-ylmethoxy)-3,4-dihydroquinazolin-8-yl)ethyl)amino)-N-(methylsulfonyl) picolinamide]
- IC50 [1]: 250 to 500 nM
- IC50 [2]: ≥ 1000 nM
- IC50 [3]: ≥ 1000 nM
- IC50 [4]: 1000 to 5000 nM

SMILES: Cc1cc([C@@H](C)Nc2ccc(Cl)nc2C(=O)NS(C)(=O)=O)c2nc(N3CCC(F)(F)CC3)n(C)c(=O)c2c1 [Compound 57, (R)-6-chloro-3-((1-(2-(4,4-difluoropiperidin-1-yl)-3,6-dimethyl-4-oxo-3,4-dihydroquinazolin-8-yl)ethyl)amino)-N-(methylsulfonyl) picolinamide]
- IC50 [1]: 500 to 1000 nM
- IC50 [2]: ≥ 1000 nM
- IC50 [3]: ≥ 1000 nM
- IC50 [4]: 1000 to 5000 nM

SMILES: Cc1cc([C@@H](C)Nc2cccnc2C(=O)NS(C)(=O)=O)c2nc(N3Cc4ccc(F)cc4C3)n(C)c(=O)c2c1 [Compound 58, (R)-3-((1-(2-(5-fluoroisoindolin-2-yl)-3,6-dimethyl-4-oxo-3,4-dihydroquinazolin-8-yl)ethyl)amino)-N-(methylsulfonyl) picolinamide]
- IC50 [1]: 250 to 500 nM
- IC50 [2]: ≥ 1000 nM
- IC50 [3]: ≥ 1000 nM
- IC50 [4]: 1000 to 5000 nM

SMILES: C[C@@H](Nc1cccnc1C(=O)NS(C)(=O)=O)c1cccc2c(=O)n(C)c(N3Cc4ccc(F)cc4C3)nc12 [Compound 59, (R)-3-((1-(2-(5-fluoroisoindolin-2-yl)-3-methyl-4-oxo-3,4-dihydroquinazolin-8-yl)ethyl)amino)-N-(methylsulfonyl) picolinamide]
- IC50 [1]: 1000 to 5000 nM
- IC50 [2]: ≥ 1000 nM
- IC50 [3]: ≥ 1000 nM
- IC50 [4]: ≥ 5000 nM

SMILES: C[C@@H](Nc1cccnc1C(=O)NS(C)(=O)=O)c1cc(F)cc2c(=O)n(C)c(N3Cc4ccc(F)cc4C3)nc12 [Compound 60, (R)-3-((1-(6-fluoro-2-(5-fluoro-isoindolin-2-yl)-3-methyl-4-oxo-3,4-dihydroquinazolin-8-yl)ethyl)amino)-N-(methylsulfonyl) picolinamide]
- IC50 [1]: 1000 to 5000 nM
- IC50 [2]: ≥ 1000 nM
- IC50 [3]: ≥ 1000 nM
- IC50 [4]: 1000 to 5000 nM

SMILES: Cc1ccc(N[C@H](C)c2cc(F)cc3c(=O)n(C)c(N4Cc5ccc(F)cc5C4)nc23)c(C(=O)NS(C)(=O)=O)n1 [Compound 61, (R)-3-((1-(6-fluoro-2-(5-fluoroisoindolin-2-yl)-3-methyl-4-oxo-3,4-dihydro-quinazolin-8-yl)ethyl)amino)-6-methyl-N-(methylsulfonyl) picolinamide]
- IC50 [1]: 1000 to 5000 nM
- IC50 [2]: ≥ 1000 nM
- IC50 [3]: ≥ 1000 nM
- IC50 [4]: ≥ 5000 nM

SMILES: Cc1cc([C@@H](C)Nc2ccc(F)cc2C(=O)NS(C)(=O)=O)c2nc(N3CCC(F)(F)CC3)n(C)c(=O)c2c1 [Compound 62, (R)-2-((1-(2-(4,4-difluoropiperidin-1-yl)-3,6-dimethyl-4-oxo-3,4-dihydroquinazolin-8-yl)ethyl)amino)-5-fluoro-N-(methyl-sulfonyl)benzamide]
- IC50 [1]: 1000 to 5000 nM
- IC50 [2]: ≥ 1000 nM
- IC50 [3]: < 100 nM
- IC50 [4]: 1000 to 5000 nM

SMILES: Cc1cc([C@@H](C)Nc2ccc(F)cc2C(=O)NS(C)(=O)=O)c2nc(N3Cc4ccc(F)cc4C3)n(C)c(=O)c2c1 [Compound 63, (R)-5-fluoro-2-((1-(2-(5-fluoro-isoindolin-2-yl)-3,6-dimethyl-4-oxo-3,4-dihydroquinazolin-8-yl)ethyl)amino)-N-(methylsulfonyl) benzamide]
- IC50 [1]: 1000 to 5000 nM
- IC50 [2]: ≥ 1000 nM
- IC50 [3]: ≥ 1000 nM
- IC50 [4]: 1000 to 5000 nM

SMILES: Cc1cc([C@@H](C)Nc2ccc(Cl)cc2C(=O)NS(C)(=O)=O)c2nc(N3Cc4ccc(F)cc4C3)n(C)c(=O)c2c1 [Compound 64, (R)-5-chloro-2-((1-(2-(5-fluoro-isoindolin-2-yl)-3,6-dimethyl-4-oxo-3,4-dihydroquinazolin-8-yl)ethyl)amino)-N-(methylsulfonyl) benzamide]
- IC50 [1]: 1000 to 5000 nM
- IC50 [2]: ≥ 1000 nM
- IC50 [3]: ≥ 1000 nM
- IC50 [4]: 1000 to 5000 nM

SMILES: COc1ccc(N[C@H](C)c2cc(C)cc3c(=O)n(C)c(N4Cc5ccc(F)cc5C4)nc23)c(C(=O)NS(C)(=O)=O)n1 [Compound 65, (R)-3-((1-(2-(5-fluoroisoindolin-2-yl)-3,6-dimethyl-4-oxo-3,4-dihydro-quinazolin-8-yl)ethyl)amino)-6-methoxy-N-(methylsulfonyl) picolinamide]
- IC50 [1]: 500 to 1000 nM
- IC50 [2]: ≥ 1000 nM
- IC50 [3]: ≥ 1000 nM
- IC50 [4]: 1000 to 5000 nM

SMILES: C[C@@H](Nc1ccc(Cl)nc1C(=O)NS(C)(=O)=O)c1cc(F)cc2c(=O)n(C)c(N3Cc4ccc(F)cc4C3)nc12 [Compound 66, (R)-6-chloro-3-((1-(6-fluoro-2-(5-fluoroisoindolin-2-yl)-3-methyl-4-oxo-3,4-dihydroquinazolin-8-yl)ethyl)amino)-N-(methylsulfonyl) picolinamide]
- IC50 [1]: 250 to 500 nM
- IC50 [2]: < 100 nM
- IC50 [3]: 100 to 250 nM
- IC50 [4]: 1000 to 5000 nM

SMILES: Cc1cc([C@@H](C)Nc2ccc(Cl)nc2C(=O)NS(=O)(=O)N(C)C)c2nc(N3Cc4ccc(F)cc4C3)n(C)c(=O)c2c1 [Compound 67, (R)-6-chloro-N-(N,N-dimethyl-sulfamoyl)-3-((1-(2-(5-fluoro-isoindolin-2-yl)-3,6-dimethyl-4-oxo-3,4-dihydroquinazolin-8-yl)ethyl)amino)picolinamide]
- IC50 [1]: 500 to 1000 nM
- IC50 [2]: ≥ 1000 nM
- IC50 [3]: ≥ 1000 nM
- IC50 [4]: ≥ 5000 nM

SMILES: Cc1cc([C@@H](C)Nc2cc(F)cnc2C(=O)NS(C)(=O)=O)c2nc(N3Cc4ccc(F)cc4C3)n(C)c(=O)c2c1 [Compound 68, (R)-5-fluoro-3-((1-(2-(5-fluoro-isoindolin-2-yl)-3,6-dimethyl-4-oxo-3,4-dihydroquinazolin-8-yl)ethyl)amino)-N-(methylsulfonyl) picolinamide]
- IC50 [1]: 1000 to 5000 nM
- IC50 [2]: ≥ 1000 nM
- IC50 [3]: ≥ 1000 nM
- IC50 [4]: ≥ 5000 nM

SMILES: Cc1cc([C@@H](C)Nc2cc(C)c(F)nc2C(=O)NS(C)(=O)=O)c2nc(N3Cc4ccc(F)cc4C3)n(C)c(=O)c2c1 [Compound 69, (R)-6-fluoro-3-((1-(2-(5-fluoro-isoindolin-2-yl)-3,6-dimethyl-4-oxo-3,4-dihydroquinazolin-8-yl)ethyl)amino)-5-methyl-N-(methylsulfonyl)picolinamide]
- IC50 [1]: 1000 to 5000 nM
- IC50 [2]: ≥ 1000 nM
- IC50 [3]: ≥ 1000 nM
- IC50 [4]: ≥ 5000 nM

SMILES: CNC(=O)NS(=O)(=O)c1nc(Cl)ccc1N[C@H](C)c1cc(C)cc2c(=O)n(C)c(N3Cc4ccc(F)cc4C3)nc12 [Compound 70, (R)-6-chloro-3-((1-(2-(5-fluoro-isoindolin-2-yl)-3,6-dimethyl-4-oxo-3,4-dihydroquinazolin-8-yl)ethyl)amino)-N-(methylcarb-amoyl)pyridine-2-sulfonamide]
- IC50 [1]: 1000 to 5000 nM
- IC50 [2]: ≥ 1000 nM
- IC50 [3]: 250 to 500 nM
- IC50 [4]: ≥ 5000 nM

SMILES: Cc1cc([C@@H](C)Nc2ccc(Cl)nc2S(=O)(=O)NC(=O)N(C)C)c2nc(N3Cc4ccc(F)cc4C3)n(C)c(=O)c2c1 [Compound 71, (R)-6-chloro-N-(dimethylcarb-amoyl)-3-((1-(2-(5-fluoroisoindolin-2-yl)-3,6-dimethyl-4-oxo-3,4-dihydroquinazolin-8-yl)ethyl)amino)pyridine-2-sulfonamide]
- IC50 [1]: 1000 to 5000 nM
- IC50 [2]: ≥ 1000 nM
- IC50 [3]: ≥ 1000 nM
- IC50 [4]: ≥ 5000 nM

SMILES: Cc1cc2c(=O)n(C)c(N3Cc4ccc(F)cc4C3)nc2c([C@@H](C)Nc2ccc(Cl)nc2C(=O)NS(C)(=O)=O)n1 [Compound 72, (R)-6-chloro-3-((1-(2-(5-fluoroisoindolin-2-yl)-3,6-dimethyl-4-oxo-3,4-dihydro-pyrido[3,4-d]pyrimidin-8-yl)ethyl)amino)-N-(methylsulfonyl)picolinamide]
- IC50 [1]: 250 to 500 nM
- IC50 [2]: ≥ 1000 nM
- IC50 [3]: 100 to 250 nM
- IC50 [4]: 1000 to 5000 nM

SMILES: CNS(=O)(=O)NC(=O)c1nc(Cl)ccc1N[C@H](C)c1cc(C)cc2c(=O)n(C)c(N3Cc4ccc(F)cc4C3)nc12 [Compound 73, (R)-6-chloro-3-((1-(2-(5-fluoroisoindolin-2-yl)-3,6-dimethyl-4-oxo-3,4-dihydroquinazolin-8-yl)ethyl)amino)-N-(N-methyl-sulfamoyl)picolinamide]
- IC50 [1]: < 250 nM
- IC50 [2]: ≥ 1000 nM
- IC50 [3]: 250 to 500 nM
- IC50 [4]: 1000 to 5000 nM

SMILES: CC(=O)NS(=O)(=O)c1nc(Cl)ccc1N[C@H](C)c1cc(C)cc2c(=O)n(C)c(N3Cc4ccc(F)cc4C3)nc12 [Compound 74, (R)—N-((6-chloro-3-((1-(2-(5-fluoroisoindolin-2-yl)-3,6-dimethyl-4-oxo-3,4-dihydroquinazolin-8-yl)ethyl)amino)pyridin-2-yl)sulfonyl)acetamide]
- IC50 [1]: 250 to 500 nM
- IC50 [2]: ≥ 1000 nM
- IC50 [3]: 100 to 250 nM
- IC50 [4]: ≥ 5000 nM

SMILES: Cc1cc([C@@H](C)Nc2ccccc2S(=O)(=O)NC(=O)C(F)F)c2nc(N3Cc4ccc(F)cc4C3)n(C)c(=O)c2c1 [Compound 75, (R)-2,2-difluoro-N-((2-((1-(2-(5-fluoroisoindolin-2-yl)-3,6-dimethyl-4-oxo-3,4-dihydroquinazolin-8-yl)ethyl)amino)phenyl)sulfonyl)acetamide]
- IC50 [1]: 1000 to 5000 nM
- IC50 [2]: ≥ 1000 nM
- IC50 [3]: ≥ 1000 nM
- IC50 [4]: ≥ 5000 nM
